Results on 14 compounds are retold here after PubChem BioAssay (NCI).

Test systems include SN12C renal; U251 CNS; LOX IMVI melanoma; OVCAR-8 ovarian; OVCAR-3 ovarian; UO-31 renal; HL-60(TB) leukemia; HCC-2998 colon; OVCAR-5 ovarian.
Common to all, as to assay: inhibition of tumour cell growth, NCI panel, 48 h

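Test compounds were applied to cells in 96-well plates for 48 hours at 5 doses. The concentration for 50% growth inhibition is given as GI50. TGI is the concentration that stops growth completely.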

As for `COC(=O)CC1NC(=O)C1C1(C)OCCO1` (centres undefined), the TGI with SN12C renal, in the assay on U251 CNS, in the assay on LOX IMVI melanoma, with OVCAR-8 ovarian, in the assay on OVCAR-3 ovarian and in the assay on UO-31 renal was greater than 100 µM each time. In addition, the TGI with HL-60(TB) leukemia and with HCC-2998 colon was greater than 100 µM throughout.
For the compound `C/C=C(\C)c1cc(O)c(C)c2c1Oc1cc(O)c(Cl)c(C)c1C(=O)O2`, the TGI is 30.9 µM in the assay on SN12C renal; 39.6 µM with U251 CNS; 31.6 µM with LOX IMVI melanoma; 30.2 µM in the assay with OVCAR-5 ovarian; 45.9 µM in the assay with OVCAR-8 ovarian; 27.2 µM with UO-31 renal. The values for the TGI in the assay on HL-60(TB) leukemia and in the assay with HCC-2998 colon were 67.3 µM and 26.5 µM, respectively.
As to `COc1cc(-c2cc(-c3cc([N+](=O)[O-])c(/C=N/NC(=O)c4ccncc4)o3)ccc2OC)ccc1C`, the TGI with SN12C renal, in the assay on LOX IMVI melanoma, in the assay with OVCAR-5 ovarian, in the assay with OVCAR-3 ovarian and in the assay on HCC-2998 colon was greater than 100 µM each time.
As to `O=C([CH-]C(=O)c1ccccc1)c1ccccc1.O=C([CH-]C(=O)c1ccccc1)c1ccccc1.[OH-].[OH-].[Ti+4]`, the GI50 with SN12C renal is greater than 100 µM; with U251 CNS, 18.1 µM; in the assay on OVCAR-5 ovarian, greater than 100 µM; in the assay with OVCAR-8 ovarian, 55 µM; with OVCAR-3 ovarian it was 51.1 µM; with UO-31 renal, 59.3 µM. The GI50 with HL-60(TB) leukemia and in the assay with HCC-2998 colon was greater than 100 µM each time. Moreover, the TGI in the assay on SN12C renal, in the assay on U251 CNS, with OVCAR-5 ovarian, in the assay on OVCAR-8 ovarian, with OVCAR-3 ovarian and with UO-31 renal was greater than 100 µM each time. The TGI with HL-60(TB) leukemia and in the assay with HCC-2998 colon was greater than 100 µM throughout.
For `CCCCCCN(N)C(=O)CC#N`, the TGI in the assay with SN12C renal, in the assay with U251 CNS, in the assay on LOX IMVI melanoma, in the assay on OVCAR-5 ovarian, in the assay on OVCAR-8 ovarian and with OVCAR-3 ovarian was greater than 100 µM throughout. Besides, the TGI with UO-31 renal and in the assay on HCC-2998 colon was greater than 100 µM throughout.
Consider `Fc1cccc(C2SCc3nc4ccccc4n32)c1F` (centres undefined), for which the TGI in the assay on SN12C renal, in the assay with U251 CNS, with LOX IMVI melanoma, in the assay on OVCAR-5 ovarian, in the assay on OVCAR-8 ovarian and with OVCAR-3 ovarian was greater than 100 µM in each case. For the same compound, the TGI was greater than 100 µM in the assay on UO-31 renal, 46.9 µM with HL-60(TB) leukemia and greater than 100 µM in the assay with HCC-2998 colon.
Regarding `COCCOCOc1ccc(OCOCCOC)c2c1C(=O)c1ccccc1C2=O`, the TGI in the assay on SN12C renal, in the assay on U251 CNS, with LOX IMVI melanoma, in the assay on OVCAR-5 ovarian, in the assay with OVCAR-8 ovarian and in the assay with OVCAR-3 ovarian was greater than 100 µM in each case. For the same compound, the TGI in the assay with UO-31 renal, in the assay with HL-60(TB) leukemia and in the assay on HCC-2998 colon was greater than 100 µM each time.
On to `Cc1ccc(S(=O)OC2C3CC4CC(C3)CC2C4)cc1` (centres undefined), for which the TGI with SN12C renal, with U251 CNS, in the assay on LOX IMVI melanoma, in the assay on OVCAR-5 ovarian, in the assay with OVCAR-8 ovarian and in the assay with OVCAR-3 ovarian was greater than 100 µM in each case. Moreover, the TGI in the assay on UO-31 renal, in the assay on HL-60(TB) leukemia and with HCC-2998 colon was greater than 100 µM each time.
For the compound `O=P1(Oc2ccccc2)C(c2ccccc2)C(c2ccccc2)=NN1c1ccccc1` (centres undefined), the TGI in the assay on SN12C renal is 94.3 µM; with U251 CNS, 42.2 µM; in the assay with LOX IMVI melanoma, 31.6 µM; in the assay on OVCAR-5 ovarian it was 50.2 µM; in the assay on OVCAR-8 ovarian, greater than 100 µM; in the assay on OVCAR-3 ovarian, 42.2 µM. The TGI with HL-60(TB) leukemia was determined as 47 µM; in the assay on HCC-2998 colon, 89.8 µM.
In the case of `COc1ccc(C2[C@@H](Cl)C(=O)N2c2cc(OC)c(OC)c(OC)c2)cc1Cl` (some centres undefined), the GI50 with SN12C renal is 0.414 µM; with U251 CNS, 0.197 µM; in the assay with LOX IMVI melanoma it was 0.163 µM; with OVCAR-5 ovarian, 0.369 µM; in the assay with OVCAR-8 ovarian, 0.272 µM; with OVCAR-3 ovarian it was 0.12 µM. Besides, the GI50 was 1.09 µM with UO-31 renal, 0.175 µM with HL-60(TB) leukemia and 0.41 µM in the assay on HCC-2998 colon. Further, the TGI is greater than 100 µM in the assay on SN12C renal; 21.3 µM with U251 CNS; 20.8 µM in the assay on LOX IMVI melanoma; greater than 100 µM with OVCAR-5 ovarian; 20.5 µM in the assay on OVCAR-8 ovarian; 0.576 µM in the assay on OVCAR-3 ovarian. The TGI turned out to be 32.7 µM in the assay on UO-31 renal, 0.463 µM in the assay with HL-60(TB) leukemia and 17.6 µM in the assay on HCC-2998 colon.
With `O=C(O)/C(Cl)=C(\Cl)C(=O)Nc1ccc(Cl)c(Cl)c1Cl`, the TGI is 36.7 µM in the assay with SN12C renal; 34.3 µM in the assay on U251 CNS; 31.2 µM in the assay with LOX IMVI melanoma; 32.1 µM in the assay on OVCAR-5 ovarian; 35.5 µM in the assay on OVCAR-3 ovarian; 30 µM with UO-31 renal. Moreover, the TGI is 45.4 µM in the assay with HL-60(TB) leukemia and 35.1 µM in the assay with HCC-2998 colon.
For the compound `Cc1cc2c(c(C(=O)O)c1C)-c1cccc(F)c1C2=O`, the TGI in the assay with SN12C renal, in the assay with U251 CNS, in the assay on LOX IMVI melanoma, in the assay on OVCAR-5 ovarian, in the assay on OVCAR-8 ovarian and in the assay on OVCAR-3 ovarian was greater than 100 µM in each case. The TGI in the assay with UO-31 renal is 66.1 µM; in the assay on HCC-2998 colon, greater than 100 µM.
Turning to `CNS(=O)(=O)NNS(=O)(=O)c1ccc(Cl)cc1`, the TGI with SN12C renal, in the assay with OVCAR-5 ovarian, with OVCAR-8 ovarian, in the assay with OVCAR-3 ovarian, in the assay on UO-31 renal and in the assay with HL-60(TB) leukemia was greater than 100 µM each time. In the assay with HCC-2998 colon, this compound showed a TGI greater than 100 µM.
`CC1(C)OCC(C(O)C2OC(C)(C)OC2/C=N\O)O1` (centres undefined): the TGI in the assay on U251 CNS, in the assay on LOX IMVI melanoma, with OVCAR-5 ovarian, in the assay on OVCAR-8 ovarian, in the assay on OVCAR-3 ovarian and with UO-31 renal was greater than 100 µM in each case. In addition, the TGI in the assay on HL-60(TB) leukemia and with HCC-2998 colon was greater than 100 µM each time.
